In US9073858B2, “Methods of targeted drug development” (priority 2010, dated 2015):
Read-outs that look alike come from different tables or passages of the source.

What was measured:
[1] = test system: A549 cells; experiment: A549 Cell Proliferation Assay (MTT); type: cell-based; conditions: Homo sapiens, read-out: IC50 Value (μM) A549 Cells
Method: Cell proliferation is determined using the MTT assay. The MTT cell proliferation assay is a colorimetric assay system which measures the reduction of a tetrazolium component (MTT) into an insoluble formazan product by the mitochondria of viable cells. After incubation of the cells with the MTT reagent, DMSO is added to solubilize the colored crystals and the samples read at a wavelength of 560 nm. The amount of color produced is directly proportional to the number of viable cells. […] L11939) was prepared at 5 mg/ml in PBS. […] Plates were read on the PolarStar plate reader at 560 nm. […] IC50 values were calculated in GraphPad Prism using non-linear regression curve fitting. All statistical analyses was done either in GraphPad Prism or Microsoft Excel. […] Briefly, compounds are added to cells plated in 96-well plates. The cells are allowed to grow for 72 hours before MTT treatment. The effect of the compounds on cell proliferation is analyzed using GraphPad Prism. A549 cells are a non-small cell lung cancer cell line that have wild type EGFR and p53 but have point mutations in KRAS gene which transform it into an oncogene. […] SH30071.03, lot no. ATB31500), 1% Pen Strep (Gibco, cat no. […] On day 2, working solutions of compounds at 200× were prepared. […] Plates were incubated for 72 hours before analyzing them with MTT (as described above).

[2] = test system: H1975 cells; experiment: H1975 Cell Proliferation Assay (MTT); type: cell-based; conditions: Homo sapiens, read-out: IC50 Value (μM) H1975 Cells
Method: (§1) Cell proliferation is determined using the MTT assay. The MTT cell proliferation assay is a colorimetric assay system which measures the reduction of a tetrazolium component (MTT) into an insoluble formazan product by the mitochondria of viable cells. After incubation of the cells with the MTT reagent, DMSO is added to solubilize the colored crystals and the samples read at a wavelength of 560 nm. The amount of color produced is directly proportional to the number of viable cells.
(§2) 3-(4,5-Dimethylthiazol-2-yl)-2,5-diphenyltetrazolium Bromide (MTT) dye (Aesar, cat no. L11939) was prepared at 5 mg/ml in PBS. To each well, 20 μl of MTT solution was added to existing media and mixed thoroughly with 5 mins of gentle shaking at room temperature. Plates were incubated at 37° C., 5% CO2 for approximately 2 hrs. After 2-3 hrs incubation, media was aspirated out and plates were patted dry. […] Plates were incubated at 37° C., 5% CO2 for 10 min and mix thoroughly with 5 mins of gentle shaking at room temperature. Plates were read on the PolarStar plate reader at 560 nm. Percent (%) inhibition was calculated as 100%−(OD560 nm experimental-blank)×100%/OD560 nm control-blank. Blank=wells+serum free media+0.5% DMSO. Experimental=wells+cells+treatment+0.5% DMSO. Control=wells+cells+0.5% DMSO. IC50 values were calculated in GraphPad Prism using non-linear regression curve fitting. All statistical analyses was done either in GraphPad Prism or Microsoft Excel.
Briefly, compounds are added to cells plated in 96-well plates. The cells are allowed to grow for 72 hours before MTT treatment. The effect of the compounds on cell proliferation is analyzed using GraphPad Prism.

[3] = Stability on incubation with mouse liver microsomes (MLM); type: in vitro ADME; conditions: percentage left after incubation with mouse liver microsomes for 30 minutes
Method: (§3) Stability of hydroxyquinoline analogs were determined (see e.g., TABLE 18). MLM represents the percentage left after incubation with mouse liver microsomes for 30 minutes. HLM represents the percentage left after incubation with human liver microsomes for 30 minutes.
(§4) Stability of analogs having a benzaldehyde derived ring were determined (see e.g., TABLE 18). MLM represents the percentage left after incubation with mouse liver microsomes for 30 minutes. HLM represents the percentage left after incubation with human liver microsomes for 30 minutes.

[4] = Stability on incubation with human liver microsomes (HLM); type: in vitro ADME; conditions: percentage left after incubation with human liver microsomes for 30 minutes
Method: as §3, §4

[5] = test system: HT-29 cells; experiment: HT-29 Cell Proliferation Assay (MTT); type: cell-based; conditions: Homo sapiens, read-out: IC50 Value (μM) HT-29 Cells
Method: as §1, §2
Briefly, compounds are added to cells plated in 96-well plates. […] The effect of the compounds on cell proliferation is analyzed using GraphPad Prism.
HT-29 cells are a colon cancer cell line that is utilized to assess the ability of compounds to inhibit the proliferation of cells in tumors of the colon.
For the HT-29 cell proliferation assay, on day 1, HT-29 cells are seeded at 3,000 cells/well in 100 μl media containing 10% FBS, 1× Pen-Strep, and 1× L-Glutamine in 96 well, tissue culture-treated plates. […] Working solutions of compounds were prepared (at […] in 100% DMSO). To 200 μl media, 20 μl of a 5× compound (diluted in plain media) was added for a final DMSO concentration of 0.5%. […] On day 5, plates were analyzed for cell growth using the MTT assay.

| Compound | IC50 ([1]; A549, 72 h) | IC50 ([2]; NCI-H1975, 72 h) | MLM % Remaining@ 30 Min [3] | HLM % Remaining@ 30 Min [4] | other results |
| --- | --- | --- | --- | --- | --- |
| Oc1c(C(Nc2ccc(C(F)(F)F)cn2)c2ccc(C(F)(F)F)cc2)ccc2cccnc12 (stereo not shown) [AD4-13028] | 0.14 µM | 0.26 µM |  |  |  |
| Oc1c(C(Nc2ccc(C(F)(F)F)cn2)c2ccc(Cl)c(Cl)c2)ccc2cccnc12 (stereo not shown) [AD4-13030] | 0.17 µM | 0.22 µM |  |  |  |
| Oc1c(C(Nc2ccc(C(F)(F)F)cn2)c2ccc(C(F)(F)F)cc2F)ccc2cccnc12 (stereo not shown) [AD4-13031] | 0.12 µM | 0.24 µM | 87% | 93% |  |
| Oc1c(C(Nc2ccc(C(F)(F)F)cn2)c2ccc(Cl)c(C(F)(F)F)c2)ccc2cccnc12 (stereo not shown) [AD4-13032] | 0.17 µM | 0.21 µM |  |  |  |
| Oc1c(C(Nc2ccc(C(F)(F)F)cn2)c2ccc(Cl)cc2Cl)ccc2cccnc12 (stereo not shown) [AD4-13033] | 0.13 µM | 0.23 µM | 84% | 100% |  |
| Oc1c(C(Nc2cc(Cl)ccn2)c2ccc(C(F)(F)F)cc2F)ccc2cccnc12 (stereo not shown) [AD4-13046] | 0.16 µM | 0.12 µM |  |  |  |
| Oc1c(C(Nc2cc(Cl)ccn2)c2ccc(C(F)(F)F)c(F)c2)ccc2cccnc12 (stereo not shown) [AD4-13048] | 0.18 µM | 0.17 µM |  |  |  |
| Oc1c(C(Nc2ccc(Cl)cn2)c2cc(C(F)(F)F)ccc2Cl)ccc2cccnc12 (stereo not shown) [AD4-13052] | 0.13 µM | 0.24 µM |  |  |  |
| Oc1c(C(Nc2cc(Cl)ccn2)c2cc(C(F)(F)F)ccc2Cl)ccc2cccnc12 (stereo not shown) [AD4-13060] | 0.19 µM | 0.58 µM |  |  |  |
| Oc1c(C(Nc2ccc(C(F)(F)F)nc2)c2ccc(C(F)(F)F)cc2F)ccc2cccnc12 (stereo not shown) [AD4-13065] |  |  | 47% | 83% |  |
| Oc1c(C(Nc2ccc(Cl)cn2)c2ccc(Cl)c(C(F)(F)F)c2)ccc2cccnc12 (stereo not shown) [AD4-13067] |  |  | 46% | 89% |  |
| Cc1cc(Cl)cnc1NC(c1ccc(F)cc1F)c1ccc2cccnc2c1O (stereo not shown) [AD4-13068] |  |  | 46% | 96% |  |
| Cc1cccc(NC(c2cc(Cl)cc(Cl)c2)c2ccc3ccc(C)nc3c2O)n1 (stereo not shown) [AD4-13075] |  |  | 13% | 64% |  |
| Cc1cccc(NC(c2cc(Cl)cc(Cl)c2)c2cc(Cl)c3cccnc3c2O)n1 (stereo not shown) [AD4-13076] |  |  | 28% | 70% |  |
| Cc1cccc(NC(c2ccc(Cl)c(Cl)c2)c2cc(Cl)c3cccnc3c2O)n1 (stereo not shown) [AD4-13081] |  |  |  |  | IC50 ([1]; A549, MTT, 72 hours): 0.17 µM; IC50 ([2]; NCI-H1975, MTT, 72 hours): 0.33 µM; IC50 ([5]; HT-29, MTT, 72 hrs): 6.2 µM |
| Cc1cccc(NC(c2cc(Cl)ccc2Cl)c2ccc3ccc(C)nc3c2O)n1 (stereo not shown) [AD4-13090] |  |  |  |  | IC50 ([1]; A549, MTT, 72 hours): 0.16 µM; IC50 ([2]; NCI-H1975, MTT, 72 hours): 1.3 µM; IC50 ([5]; HT-29, MTT, 72 hrs): 3.7 µM |
| Cc1ccnc(NC(c2ccc3cccnc3c2O)c2c(F)c(F)c(OCC(F)(F)F)c(F)c2F)c1 (stereo not shown) [AD4-13092] | 0.16 µM | 0.21 µM |  |  | IC50 ([5]; HT-29, 72 h): 3.9 µM |
| Oc1c(C(Nc2ccc(Cl)cn2)c2cc(Cl)cc(Cl)c2)ccc2cccnc12 (stereo not shown) [AD4-13094] |  |  | 52% | 85% |  |
